From publication PMC5513037, “Examining the influence of specificity ligands and ATP-competitive ligands on the overall effectiveness of bivalent kinase inhibitors” (Proteome Science, 2017)
pIC50: −log10 of the molar value.

What was measured:
Test in all cases: KAM-matrix competition in K562 lysate;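 for 0.001 uM KAM: median log10 fold change of treatment over DMSO control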;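 for 0.01 uM KAM: median log10 fold change of treatment over DMSO control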;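 for 0.1 uM KAM: median log10 fold change of treatment over DMSO control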;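 for 1 uM KAM: median log10 fold change of treatment over DMSO control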;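 for 10 uM KAM: median log10 fold change of treatment over DMSO control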
Type in all cases: binding
MINK1 = target: T1, MINK1 (Homo sapiens, UniProt Q8N4C8)
T1 construct: endogenous in cells; host or cells: K562
T1 sequence (Q8N4C8 whole entry): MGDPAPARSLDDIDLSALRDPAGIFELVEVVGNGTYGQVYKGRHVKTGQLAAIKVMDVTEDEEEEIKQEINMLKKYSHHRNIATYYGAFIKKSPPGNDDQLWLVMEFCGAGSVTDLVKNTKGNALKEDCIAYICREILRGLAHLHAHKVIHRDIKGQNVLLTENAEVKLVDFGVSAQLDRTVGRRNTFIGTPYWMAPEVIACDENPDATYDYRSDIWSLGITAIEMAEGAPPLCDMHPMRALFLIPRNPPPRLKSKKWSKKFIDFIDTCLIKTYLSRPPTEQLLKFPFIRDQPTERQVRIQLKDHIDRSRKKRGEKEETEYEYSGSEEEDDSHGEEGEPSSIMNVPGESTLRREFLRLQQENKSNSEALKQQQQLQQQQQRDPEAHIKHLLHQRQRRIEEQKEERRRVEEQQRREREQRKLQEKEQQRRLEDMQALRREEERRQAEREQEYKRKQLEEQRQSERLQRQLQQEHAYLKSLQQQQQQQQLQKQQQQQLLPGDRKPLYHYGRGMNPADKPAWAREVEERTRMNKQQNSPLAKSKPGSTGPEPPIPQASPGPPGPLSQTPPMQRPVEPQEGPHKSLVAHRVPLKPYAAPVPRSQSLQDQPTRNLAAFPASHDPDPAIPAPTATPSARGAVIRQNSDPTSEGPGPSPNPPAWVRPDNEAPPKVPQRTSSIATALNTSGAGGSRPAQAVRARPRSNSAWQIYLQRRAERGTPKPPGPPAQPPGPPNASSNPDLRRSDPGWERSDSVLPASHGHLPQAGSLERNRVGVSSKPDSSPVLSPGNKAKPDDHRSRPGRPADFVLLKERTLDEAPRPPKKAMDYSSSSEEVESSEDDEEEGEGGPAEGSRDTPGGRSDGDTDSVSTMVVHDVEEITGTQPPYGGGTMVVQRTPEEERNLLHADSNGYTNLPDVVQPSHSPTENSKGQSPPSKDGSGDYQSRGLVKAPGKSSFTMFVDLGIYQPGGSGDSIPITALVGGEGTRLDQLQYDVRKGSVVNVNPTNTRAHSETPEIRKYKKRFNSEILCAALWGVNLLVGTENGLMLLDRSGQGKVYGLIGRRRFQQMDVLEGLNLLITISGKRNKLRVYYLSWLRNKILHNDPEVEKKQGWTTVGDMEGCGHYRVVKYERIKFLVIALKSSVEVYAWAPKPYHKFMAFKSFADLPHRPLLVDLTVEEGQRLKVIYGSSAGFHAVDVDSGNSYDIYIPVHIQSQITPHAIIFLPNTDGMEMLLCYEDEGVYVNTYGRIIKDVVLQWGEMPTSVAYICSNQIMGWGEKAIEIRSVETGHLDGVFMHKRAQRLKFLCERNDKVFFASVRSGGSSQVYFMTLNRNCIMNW
Method: (§1) Supplement 12953_2017_125_MOESM1_ESM.zip/MS_Supp Info.xlsx, sheet "KAM" | column: 10 uM KAM; 1 uM KAM; 0.1 uM KAM; 0.01 uM KAM; 0.001 uM KAM; RB50

PKN1 = target: T2, PKN1 (Homo sapiens, UniProt Q16512);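 for 0.001 uM KAM: median log10 fold change of treatment over DMSO control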;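 for 0.01 uM KAM: median log10 fold change of treatment over DMSO control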;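 for 0.1 uM KAM: median log10 fold change of treatment over DMSO control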;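 for 1 uM KAM: median log10 fold change of treatment over DMSO control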;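 for 10 uM KAM: median log10 fold change of treatment over DMSO control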
T2 construct: endogenous in cells; host or cells: K562
T2 sequence (Q16512 whole entry): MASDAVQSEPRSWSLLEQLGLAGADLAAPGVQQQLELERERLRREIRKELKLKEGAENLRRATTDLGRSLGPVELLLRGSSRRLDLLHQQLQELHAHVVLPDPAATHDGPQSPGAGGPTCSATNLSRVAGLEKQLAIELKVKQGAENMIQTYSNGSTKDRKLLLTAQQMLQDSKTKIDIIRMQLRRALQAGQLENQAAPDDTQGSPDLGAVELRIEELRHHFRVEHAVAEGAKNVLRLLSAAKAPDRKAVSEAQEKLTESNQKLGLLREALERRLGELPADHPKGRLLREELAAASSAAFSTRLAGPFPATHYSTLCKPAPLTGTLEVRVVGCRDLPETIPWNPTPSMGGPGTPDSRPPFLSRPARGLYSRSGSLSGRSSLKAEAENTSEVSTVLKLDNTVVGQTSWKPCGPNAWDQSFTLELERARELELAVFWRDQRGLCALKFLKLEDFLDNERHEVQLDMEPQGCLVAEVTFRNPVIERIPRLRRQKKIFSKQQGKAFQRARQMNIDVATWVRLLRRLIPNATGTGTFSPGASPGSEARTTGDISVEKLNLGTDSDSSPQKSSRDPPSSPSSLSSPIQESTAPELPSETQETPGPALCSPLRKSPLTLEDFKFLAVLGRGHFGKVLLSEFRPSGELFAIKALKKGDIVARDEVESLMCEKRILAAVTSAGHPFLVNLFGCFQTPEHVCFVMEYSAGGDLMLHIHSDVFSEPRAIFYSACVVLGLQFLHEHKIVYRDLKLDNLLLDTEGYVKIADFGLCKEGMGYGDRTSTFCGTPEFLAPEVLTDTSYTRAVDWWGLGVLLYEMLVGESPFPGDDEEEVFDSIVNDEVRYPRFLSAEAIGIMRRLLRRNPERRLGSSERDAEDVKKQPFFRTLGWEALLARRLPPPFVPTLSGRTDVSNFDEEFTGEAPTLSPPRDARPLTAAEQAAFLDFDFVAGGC
Method: as §1

PRKD3 = target: T3, PRKD3 (Homo sapiens, UniProt O94806)
T3 construct: endogenous in cells; host or cells: K562
T3 sequence (O94806 1-890): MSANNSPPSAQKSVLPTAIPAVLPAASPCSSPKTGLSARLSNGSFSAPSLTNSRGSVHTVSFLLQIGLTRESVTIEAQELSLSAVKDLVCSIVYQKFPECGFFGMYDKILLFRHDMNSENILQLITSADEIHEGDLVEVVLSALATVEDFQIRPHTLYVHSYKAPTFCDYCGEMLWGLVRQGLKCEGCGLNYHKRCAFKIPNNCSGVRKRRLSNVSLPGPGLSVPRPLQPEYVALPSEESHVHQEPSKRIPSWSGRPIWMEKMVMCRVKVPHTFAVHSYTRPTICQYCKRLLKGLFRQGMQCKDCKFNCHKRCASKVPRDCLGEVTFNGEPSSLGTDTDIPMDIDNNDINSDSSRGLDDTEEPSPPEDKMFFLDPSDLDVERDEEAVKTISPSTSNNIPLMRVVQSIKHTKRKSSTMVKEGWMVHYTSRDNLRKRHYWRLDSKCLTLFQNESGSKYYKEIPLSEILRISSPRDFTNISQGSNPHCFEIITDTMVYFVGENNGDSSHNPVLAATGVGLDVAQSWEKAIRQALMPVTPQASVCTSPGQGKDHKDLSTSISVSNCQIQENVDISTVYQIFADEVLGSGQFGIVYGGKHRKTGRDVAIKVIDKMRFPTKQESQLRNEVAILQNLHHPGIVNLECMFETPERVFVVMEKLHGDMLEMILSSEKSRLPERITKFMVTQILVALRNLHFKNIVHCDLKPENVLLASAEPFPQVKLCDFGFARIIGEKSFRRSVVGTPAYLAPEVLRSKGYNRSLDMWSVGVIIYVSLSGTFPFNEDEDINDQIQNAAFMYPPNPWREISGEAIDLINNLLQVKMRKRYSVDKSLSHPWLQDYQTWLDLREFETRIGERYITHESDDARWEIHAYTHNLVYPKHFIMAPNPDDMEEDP
Method: as §1

AURKB = target: T4, AURKB (Homo sapiens, UniProt Q96GD4)
T4 construct: endogenous in cells; host or cells: K562
T4 sequence (Q96GD4 whole entry): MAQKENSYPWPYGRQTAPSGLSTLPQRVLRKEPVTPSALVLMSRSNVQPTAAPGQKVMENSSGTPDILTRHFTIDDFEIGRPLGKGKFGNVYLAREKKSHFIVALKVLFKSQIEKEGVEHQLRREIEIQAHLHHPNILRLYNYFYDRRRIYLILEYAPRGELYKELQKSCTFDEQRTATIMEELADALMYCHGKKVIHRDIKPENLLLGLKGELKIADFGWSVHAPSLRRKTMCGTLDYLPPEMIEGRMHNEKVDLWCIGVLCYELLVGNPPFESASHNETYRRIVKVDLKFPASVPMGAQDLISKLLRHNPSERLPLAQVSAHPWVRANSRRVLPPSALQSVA
Method: as §1

TP53RK = target: T5, TP53RK (Homo sapiens, UniProt Q96S44);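 for 0.001 uM KAM: median log10 fold change of treatment over DMSO control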;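 for 0.01 uM KAM: median log10 fold change of treatment over DMSO control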;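 for 0.1 uM KAM: median log10 fold change of treatment over DMSO control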;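 for 1 uM KAM: median log10 fold change of treatment over DMSO control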;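 for 10 uM KAM: median log10 fold change of treatment over DMSO control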
T5 construct: endogenous in cells; host or cells: K562
T5 sequence (Q96S44 1-253): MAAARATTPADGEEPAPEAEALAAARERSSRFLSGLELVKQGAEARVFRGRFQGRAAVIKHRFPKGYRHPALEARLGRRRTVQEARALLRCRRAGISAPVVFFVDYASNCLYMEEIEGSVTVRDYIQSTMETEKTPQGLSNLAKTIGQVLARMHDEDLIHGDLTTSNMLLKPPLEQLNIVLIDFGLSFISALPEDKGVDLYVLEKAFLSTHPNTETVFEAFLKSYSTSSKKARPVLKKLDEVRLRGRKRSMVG
Method: as §1

MASTL = target: T6, MASTL (Homo sapiens, UniProt Q96GX5)
T6 construct: endogenous in cells; host or cells: K562 cell lysate
T6 sequence (Q96GX5 1-879): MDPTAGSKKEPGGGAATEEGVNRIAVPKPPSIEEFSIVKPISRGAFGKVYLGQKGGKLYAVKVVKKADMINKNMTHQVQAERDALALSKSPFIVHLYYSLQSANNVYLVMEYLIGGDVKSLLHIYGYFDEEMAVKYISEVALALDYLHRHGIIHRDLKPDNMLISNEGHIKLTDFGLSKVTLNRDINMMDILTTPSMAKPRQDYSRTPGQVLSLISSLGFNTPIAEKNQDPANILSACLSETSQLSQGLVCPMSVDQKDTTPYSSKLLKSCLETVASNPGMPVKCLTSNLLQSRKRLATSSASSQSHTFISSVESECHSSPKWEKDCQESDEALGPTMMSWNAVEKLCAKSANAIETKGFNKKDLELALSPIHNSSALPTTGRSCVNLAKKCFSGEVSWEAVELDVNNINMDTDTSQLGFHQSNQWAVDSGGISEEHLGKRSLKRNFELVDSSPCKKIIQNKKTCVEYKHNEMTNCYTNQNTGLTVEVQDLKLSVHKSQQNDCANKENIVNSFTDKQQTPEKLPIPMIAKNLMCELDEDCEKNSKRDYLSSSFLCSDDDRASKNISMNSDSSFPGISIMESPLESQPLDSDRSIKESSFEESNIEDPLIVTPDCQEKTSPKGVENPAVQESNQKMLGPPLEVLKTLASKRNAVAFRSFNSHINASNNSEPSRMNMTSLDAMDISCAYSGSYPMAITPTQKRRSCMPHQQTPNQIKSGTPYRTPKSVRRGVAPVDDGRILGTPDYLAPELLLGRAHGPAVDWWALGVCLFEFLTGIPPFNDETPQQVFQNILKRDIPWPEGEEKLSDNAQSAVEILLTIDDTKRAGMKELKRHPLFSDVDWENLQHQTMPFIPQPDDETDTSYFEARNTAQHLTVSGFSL
Method: as §1

[1] = read-out: RB50 (the source's name)
[2] = KAM 0.001-10 uM, read-out: RB50 (the source's name)

## N#CCc1ccc(Nc2nc(NCCCN)cc(Nc3cc(C4CC4)[nH]n3)n2)cc1 [KAM]
MINK1; 0.001 uM KAM
  median Log10 fold change: -0.05922
MINK1; 0.01 uM KAM
  median Log10 fold change: -0.00678
MINK1; 0.1 uM KAM
  median Log10 fold change: -0.2189
MINK1; 1 uM KAM
  median Log10 fold change: -0.4489
MINK1; 10 uM KAM
  median Log10 fold change: -0.4879
MINK1; [1]
  pIC50: 6.48
PKN1; [2]
  pIC50: < 5.00
PKN1; relative to 0 uM KAM = 0
  0.001 uM KAM: -0.02702
  0.01 uM KAM: -0.01686
  0.1 uM KAM: -0.08252
  1 uM KAM: -0.1762
  10 uM KAM: -0.2257
PRKD3; 0.001 uM KAM
  median Log10 fold change: -0.02816
PRKD3; 0.01 uM KAM
  median Log10 fold change: -0.02551
PRKD3; 0.1 uM KAM
  median Log10 fold change: -0.171
PRKD3; 1 uM KAM
  median Log10 fold change: -0.366
PRKD3; 10 uM KAM
  median Log10 fold change: -0.539
PRKD3; [1]
  pIC50: 6.20
AURKB; 0.001 uM KAM
  median Log10 fold change: 0.001732
AURKB; 0.01 uM KAM
  median Log10 fold change: -0.09106
AURKB; 0.1 uM KAM
  median Log10 fold change: -0.3265
AURKB; 1 uM KAM
  median Log10 fold change: -0.4096
AURKB; 10 uM KAM
  median Log10 fold change: -0.3913
AURKB; [1]
  pIC50: 6.86
TP53RK; [2]
  pIC50: < 5.00
TP53RK; relative to 0 uM KAM = 0
  0.001 uM KAM: 0.009964
  0.01 uM KAM: 0.004194
  0.1 uM KAM: 0.08221
  1 uM KAM: 0.04146
  10 uM KAM: -0.01189
MASTL; 0.001 uM KAM
  median Log10 fold change: 0.009734
MASTL; 0.01 uM KAM
  median Log10 fold change: -0.004391
MASTL; 0.1 uM KAM
  median Log10 fold change: -0.2197
MASTL; 1 uM KAM
  median Log10 fold change: -0.3171
MASTL; 10 uM KAM
  median Log10 fold change: -0.3645
MASTL; [1]
  pIC50: 6.02
